Experiments:
[1] = Apparent second order rate constant determined as the ratio of kinact/Ki
[2] = molecular target: T1, Thymidylate synthase (Lactobacillus casei) (UniProt P00469); test: Kinetic constant for inactivation of Lactobacillus casei thymidylate synthase from double reciprocal plots; details: Lacticaseibacillus casei
T1 sequence (whole entry): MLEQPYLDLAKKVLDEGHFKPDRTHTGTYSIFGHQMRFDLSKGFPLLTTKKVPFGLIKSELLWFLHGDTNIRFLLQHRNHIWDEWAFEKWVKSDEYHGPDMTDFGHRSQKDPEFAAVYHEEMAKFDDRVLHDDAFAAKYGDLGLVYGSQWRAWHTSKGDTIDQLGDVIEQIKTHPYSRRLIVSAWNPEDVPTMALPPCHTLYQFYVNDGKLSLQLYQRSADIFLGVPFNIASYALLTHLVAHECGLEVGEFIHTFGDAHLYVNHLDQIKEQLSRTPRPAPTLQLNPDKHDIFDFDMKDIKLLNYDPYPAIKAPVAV

[3] = molecular target: T1, Thymidylate synthase (Lactobacillus casei); details: Lacticaseibacillus casei
[4] = molecular target: T1, Thymidylate synthase (Lactobacillus casei); details: Lacticaseibacillus casei; remark: listed apart in the source
[5] = molecular target: T1, Thymidylate synthase (Lactobacillus casei); details: Lacticaseibacillus casei; remark: listed apart in the source
[6] = molecular target: T1, Thymidylate synthase (Lactobacillus casei); details: Lacticaseibacillus casei; remark: listed apart in the source
[7] = molecular target: T1, Thymidylate synthase (Lactobacillus casei); details: Lacticaseibacillus casei; remark: listed apart in the source
[8] = molecular target: T1, Thymidylate synthase (Lactobacillus casei); details: Lacticaseibacillus casei; remark: listed apart in the source
[9] = molecular target: T1, Thymidylate synthase (Lactobacillus casei); details: Lacticaseibacillus casei; remark: listed apart in the source
[10] = molecular target: T1, Thymidylate synthase (Lactobacillus casei); details: Lacticaseibacillus casei; remark: listed apart in the source
[11] = molecular target: T1, Thymidylate synthase (Lactobacillus casei); details: Lacticaseibacillus casei; 10 uM
[12] = molecular target: T1, Thymidylate synthase (Lactobacillus casei); test: Kinetic constant for the inactivation of Lactobacillus casei thymidylate synthase was determined at 10 uM concentration using 0 uM of substrate; details: Lacticaseibacillus casei

**Q.** What does the source list for `O=C1C=CC(=O)C(c2cn([C@H]3C[C@H](O)[C@@H](COP(=O)(O)O)O3)c(=O)[nH]c2=O)=C1`?
**A.** Ratio [1]: 3.2; K inact [2]: 0.065 s⁻¹

**Q.** Which k obs [3] does the source give for `CC1=C(C)C(=O)C(c2cn([C@H]3C[C@H](O)[C@@H](COP(=O)(O)O)O3)c(=O)[nH]c2=O)=CC1=O` here?
**A.** Its k obs is 0.0066 s⁻¹.

**Q.** And the Ratio [1]?
**A.** Its Ratio is 2.5.

**Q.** What about the k obs [4] of the same compound?
**A.** Its k obs is 0.0092 s⁻¹.

**Q.** What about the k obs [5] of the same compound?
**A.** The k obs was 0.011 s⁻¹.

**Q.** And the k obs [6]?
**A.** Its k obs is 0.011 s⁻¹.

**Q.** What about the K inact [7] of the same compound?
**A.** Its K inact is 0.015 s⁻¹.

**Q.** What about the k obs [8] of the same compound?
**A.** The k obs was 0.0052 s⁻¹.

**Q.** And the k obs [9]?
**A.** The k obs was 0.0028 s⁻¹.

**Q.** What about the k obs [10] of the same compound?
**A.** Its k obs is 0.015 s⁻¹.

**Q.** With `CC1=C(C)C(=O)C(c2cn([C@H]3C[C@H](O)[C@@H](COP(=O)(O)O)O3)c(=O)[nH]c2=O)=C(C)C1=O` as the compound, how does the K inact [7] read?
**A.** The K inact was 0.014 s⁻¹.

**Q.** What about the K obs / s [11] of the same compound?
**A.** Its K obs / s is 0.0084.

**Q.** With `CC1=C(C)C(=O)C(c2cn([C@H]3C[C@H](O)[C@@H](CO)O3)c(=O)[nH]c2=O)=CC1=O` as the compound, how does the k obs [12] read?
**A.** Its k obs is 4e-05 s⁻¹.

From ChEMBL document CHEMBL1123679, “5-Quinone derivatives of 2'-deoxyuridine 5'-phosphate: inhibition and inactivation of thymidylate synthase, antitumor cell, and antiviral studies” (J Med Chem, 1987)
